{"source": "patent US11419856B2", "about": "“Pharmaceutical combinations for use in the treatment of neoplastic diseases” (Basilea Pharmaceutica International AG, priority 2017, dated 2022)", "key": {"[1]": {"tested_on": "MDA-MB-231 xenograft (human triple negative breast cancer)", "test": "Antitumor efficacy and induction of cures in the MDA-MB-231 xenograft model (Examples 1A, 1B)", "assay_type": "in vivo, mouse", "protocol": "(§1) Female athymic nude mice (Crl:NU(NCr)-Foxnlnu, Charles River) were used when ten weeks old with a body weight (BW) range of 19.7-27.1 g on Day 1 of the study. The animals were fed ad libitum water (reverse osmosis, 1 ppm Cl) and NIH 31 Modified and Irradiated Lab Diet® consisting of 18.0% crude protein, 5.0% crude fat, and 5.0% crude fiber. The mice were housed on irradiated Enrich-o'Cobs™ Laboratory Animal Bedding in static micro-isolators on a 12-hour light cycle at 20-22° C. (68-72° F.) and 40-60% humidity. Charles River Discovery Services North Carolina (CR Discovery Services) specifically complies with the recommendations of the Guide for Care and Use of Laboratory Animals with respect to restraint, husbandry, surgical procedures, feed and fluid regulation, and veterinary care. The animal care and use program at CR Discovery Services is accredited by the Association for Assessment and Accreditation of Laboratory Animal Care International (AAALAC), which assures compliance with accepted standards for the care and use of laboratory animals. These considerations were taken into account in the way that the dosage regimes were designed and implemented.\nThe human MDA-MB-231 breast adenocarcinoma cells were grown to mid-log phase in RPMI-1640 medium containing 10% fetal bovine serum, 2 mM glutamine, 100 units/mL sodium penicillin G, 25 μg/mL gentamicin, and 100 μg/mL streptomycin sulfate. The tumor cells were cultured in tissue culture flasks in a humidified incubator at 37° C./5% CO2 and 95% air, harvested during exponential growth and resuspended in cold Phosphate-buffered saline (PBS). Each test animal received a subcutaneous (s.c.) injection of 5×10^6 MDA-MB-231 cells (0.1 mL cell suspension) into the right flank, and tumor growth was monitored as the average tumor size approached the target range of 100-150 mm^3. Tumors were measured (mm) in two dimensions using calipers, and volume was calculated using the formula: Tumor Volume (TV) (mm^3)=(width^2×length)/2. Eighteen days after tumor cell implantation, on Day 1 of the study, mice with individual tumor volumes ranging from 75 to 172 mm^3 were randomized into groups of 8-10 animals, with group mean tumor volumes of 114-124 mm^3.\nBAL0101553 was dissolved in 0.9% NaCl in water buffered to pH 5 with 1% sodium acetate to yield 2, 2.5 and 3 mg/mL dosing solutions, providing 20, 25 and 30 mg/kg dosages, respectively, in 10 mL/kg dosing volumes. Eribulin (purchased from Eisai Co., Lot. No. 6217, 6288, 6289 and 6309) at 0.5 mg/mL concentration was diluted in saline to yield a 0.01, 0.025 and 0.05 mg/mL dosing solutions, providing 0.1, 0.25 and 0.5 mg/kg dosages, respectively, in a dosing volume of 10 mL/kg.\n(§2) Groups of mice (n=8-10) bearing MDA-MB-231 tumors were dosed as outlined in the Tables 1 and 3. All doses were adjusted to 10 mL/kg. The control groups received oral doses of vehicle (pH 5 buffered 0.9% NaCl solution). Eribulin was administered i.v. and BAL101553 orally. When eribulin and BAL0101553 were dosed in combination, Eribulin was administered to all groups first followed by BAL0101553 dosing within 30 minutes of the first regimen.\nBody weights were recorded daily for days 1-5 and then twice weekly until the end of the study and tumor volumes were recorded twice weekly until the end of the experiment. These parameters were analyzed and graphically represented by using GraphPad-Prism™ 5 for Windows according to standard procedure. […] Tumor free animals at the end of the study time were assessed for residual MDA-MB-231 tumor cells by pathological methods. Skin and subcutaneous tissue including the tumor cell inoculation site from the flank region were resected, preserved in formalin and embedded in paraffin."}, "[2]": {"test": "Tolerability in the MDA-MB-231 xenograft model (body weight, mortalities)", "settings": "for Final body-weight / Body-weight change: mean ± SD", "protocol": "as §1, with “The” for “Female athymic nude mice (Crl:NU(NCr)-Foxnlnu, Charles River) were used when ten weeks old with a body weight (BW) range of 19.7-27.1 g on Day 1 of the study. The animals were fed ad libitum water (reverse osmosis, 1 ppm Cl) and NIH 31 Modified and Irradiated Lab Diet® consisting of 18.0% crude protein, 5.0% crude fat, and 5.0% crude fiber. The”\nas §2, with “All” for “Groups of mice (n=8-10) bearing MDA-MB-231 tumors were dosed as outlined in the Tables 1 and 3. All”\nBody weights were recorded daily for days 1-5 and then twice weekly until the end of the study and tumor volumes were recorded twice weekly until the end of the experiment. These parameters were analyzed and graphically represented by using GraphPad-Prism™ 5 for Windows according to standard procedure. […] Skin and subcutaneous tissue including the tumor cell inoculation site from the flank region were resected, preserved in formalin and embedded in paraffin. Sections of approximately 5 μm were mounted on glass slides and stained with hematoxylin/eosin and were evaluated by a trained pathologist, to identify residual tumor cells at the site of injection, and were being reported as positive for the existence of residual tumor cells or as negative for a complete lack of any evidence of residual tumor cells."}, "[3]": {"settings": "Day 26, BAL101553 p.o. 20 mg/kg qd D1-D21, 20 mg/kg qd D25-D43"}, "[4]": {"settings": "Day 100 (endpoint), BAL101553 p.o. 20 mg/kg qd D1-D21, 20 mg/kg qd D25-D43"}, "[5]": {"settings": "E1A, Day 25, p.o. 20 mg/kg qd x5/qw D1-D9, 20 mg/kg qd D12-D34"}, "[6]": {"settings": "E1A, Day 25, p.o. 30 mg/kg qd x5/qw D1-D9, 25 mg/kg qd D12-D34"}, "[7]": {"settings": "E1A, Day 85 (endpoint), p.o. 20 mg/kg qd x5/qw D1-D9, 20 mg/kg qd D12-D34"}, "[8]": {"settings": "E1A, Day 85 (endpoint), p.o. 30 mg/kg qd x5/qw D1-D9, 25 mg/kg qd D12-D34"}, "[9]": {"settings": "E1B, Day 26, p.o. 20 mg/kg qd D1-D21, 20 mg/kg qd D25-D43"}}}
{"molecule": "N#CCCNc1nonc1-c1nc2ccccc2n1CC(=O)c1ccc(NC(=O)[C@@H](N)CCCCN)cc1", "note": "[BAL101553, (S)-2,6-Diamino-hexanoic acid [4-(2-{2-[4-(2-cyano-ethylamino)-furazan-3-yl]-benzoimidazol-1-yl}-acetyl)-phenyl]-amide]", "values": [{"measurement": "# of regressed tumors (total)", "setting": "[1]; [3]", "result": "1 (10)"}, {"measurement": "T/C", "setting": "[1]; [3]", "result": 0.12}, {"measurement": "# of confirmed cures (total)", "setting": "[1]; [4]", "result": "1 (10)"}, {"measurement": "# of tumors with TV ≤ 4 mm^3 (total)", "setting": "[1]; [4]", "result": "0 (10)"}, {"measurement": "% cures", "setting": "[1]; [4]", "result": 10, "unit": "%"}, {"measurement": "# of regressed tumors (total)", "setting": "[1]; [5]", "result": "0 (8)"}, {"measurement": "T/C", "setting": "[1]; [5]", "result": 0.21}, {"measurement": "# of regressed tumors (total)", "setting": "[1]; [6]", "result": "4 (8)"}, {"measurement": "T/C", "setting": "[1]; [6]", "result": 0.07}, {"measurement": "# of confirmed cures (total)", "setting": "[1]; [7]", "result": "0 (8)"}, {"measurement": "# of tumors with TV ≤ 4 mm^3 (total)", "setting": "[1]; [7]", "result": "0 (8)"}, {"measurement": "% cures", "setting": "[1]; [7]", "result": 0, "unit": "%"}, {"measurement": "# of confirmed cures (total)", "setting": "[1]; [8]", "result": "0 (8)"}, {"measurement": "# of tumors with TV ≤ 4 mm^3 (total)", "setting": "[1]; [8]", "result": "0 (8)"}, {"measurement": "% cures", "setting": "[1]; [8]", "result": 0, "unit": "%"}, {"measurement": "Final body-weight", "setting": "[2]; [5]", "result": "26.6 ± 1.6", "unit": "g"}, {"measurement": "Final body-weight", "setting": "[2]; [6]", "result": "25 ± 1.9", "unit": "g"}, {"measurement": "T/C (TC-BW, body weight)", "setting": "[2]; [5]", "result": 1.02}, {"measurement": "T/C (TC-BW, body weight)", "setting": "[2]; [6]", "result": 1.00}, {"measurement": "Body-weight change", "setting": "[2]; E1A, day-0 until day-25, p.o. 20 mg/kg qd x5/qw D1-D9, 20 mg/kg qd D12-D34", "result": "2.8 ± 0.7", "unit": "g"}, {"measurement": "Body-weight change", "setting": "[2]; E1A, day-0 until day-25, p.o. 30 mg/kg qd x5/qw D1-D9, 25 mg/kg qd D12-D34", "result": "2.0 ± 0.8", "unit": "g"}, {"measurement": "Mortalities", "setting": "[2]; E1A, p.o. 20 mg/kg qd x5/qw D1-D9, 20 mg/kg qd D12-D34", "result": "0/8"}, {"measurement": "Final body-weight", "setting": "[2]; [9]", "result": "25.9 ± 1.4", "unit": "g"}, {"measurement": "T/C (TC-BW, body weight)", "setting": "[2]; [9]", "result": 1.04}, {"measurement": "Body-weight change", "setting": "[2]; E1B, day-0 until day-26, p.o. 20 mg/kg qd D1-D21, 20 mg/kg qd D25-D43", "result": "2.6 ± 0.7", "unit": "g"}, {"measurement": "Mortalities", "setting": "[2]; E1B, p.o. 20 mg/kg qd D1-D21, 20 mg/kg qd D25-D43", "result": "0/10"}]}
